Assay results: ChEMBL document CHEMBL5321222, “N(14)-substituted evodiamine derivatives as dual topoisomerase 1/tubulin-Inhibiting anti-gastrointestinal tumor agents” (Eur J Med Chem, 2023)
Active and inactive are the calls of the source. The rule behind the calls is not given here.

Key:
LoVo = test: Antiproliferative activity against human LoVo cells assessed as reduction in cell viability incubated for 72 hrs by MTT assay; type: functional, cell-based
RKO [1] = test: Antiproliferative activity against human RKO cells assessed as reduction in cell viability incubated for 72 hrs by MTT assay; type: functional, cell-based
SGC-7901 = test: Antiproliferative activity against human SGC-7901 cells assessed as reduction in cell viability incubated for 72 hrs by MTT assay; type: functional, cell-based; details: SGC-7901, 72 h
GES1 = test: Antiproliferative activity against human GES1 cells assessed as reduction in cell viability incubated for 72 hrs by MTT assay; type: functional, cell-based; details: GES1, 72 h
SW480 = test: Antiproliferative activity against human SW480 cells assessed as reduction in cell viability incubated for 72 hrs by MTT assay; type: functional, cell-based; details: SW480, 72 h
MGC-803 [2] = test: Antiproliferative activity against human MGC-803 cells assessed as reduction in cell viability incubated for 72 hrs by MTT assay; type: functional, cell-based; details: MGC-803, 72 h
HGC-27 = test: Antiproliferative activity against human HGC-27 cells assessed as reduction in cell viability incubated for 72 hrs by MTT assay; type: functional, cell-based; details: HGC-27, 72 h
[3] = molecular target: T1, DNA topoisomerase 1 (Homo sapiens) (UniProt P11387); test: Inhibition of topoisomerase 1 (unknown origin) at 200 uM using PBR322 DNA as substrate incubated for 30 mins by agarose gel electrophoresis
T1 sequence (whole entry): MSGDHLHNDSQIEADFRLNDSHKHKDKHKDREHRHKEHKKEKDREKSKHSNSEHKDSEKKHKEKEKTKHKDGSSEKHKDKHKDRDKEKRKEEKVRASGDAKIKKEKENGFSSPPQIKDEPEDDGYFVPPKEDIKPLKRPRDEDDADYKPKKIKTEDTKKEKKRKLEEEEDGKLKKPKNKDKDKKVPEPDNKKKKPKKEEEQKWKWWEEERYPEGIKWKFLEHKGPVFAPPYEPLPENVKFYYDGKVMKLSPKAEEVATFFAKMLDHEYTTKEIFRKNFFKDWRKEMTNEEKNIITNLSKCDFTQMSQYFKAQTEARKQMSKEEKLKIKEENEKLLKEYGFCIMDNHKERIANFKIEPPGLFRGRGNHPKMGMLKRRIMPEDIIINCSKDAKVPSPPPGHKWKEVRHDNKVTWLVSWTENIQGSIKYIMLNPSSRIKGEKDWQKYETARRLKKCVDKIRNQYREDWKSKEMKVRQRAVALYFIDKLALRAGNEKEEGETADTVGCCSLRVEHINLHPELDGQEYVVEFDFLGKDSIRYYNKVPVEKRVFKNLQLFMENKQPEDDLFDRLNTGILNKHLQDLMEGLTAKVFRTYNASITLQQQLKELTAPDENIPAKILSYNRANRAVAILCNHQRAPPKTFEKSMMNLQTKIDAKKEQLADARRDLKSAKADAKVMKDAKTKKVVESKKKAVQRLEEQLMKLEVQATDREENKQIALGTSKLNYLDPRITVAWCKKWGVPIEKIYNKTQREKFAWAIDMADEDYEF

MGC-803 [4] = test: Inhibition of cell […] in human MGC-803 cells at 50 nM incubated for 24 hrs by scratch wound healing assay; type: functional, cell-based
MGC-803 [5] = test: Induction of cell cycle arrest in human MGC-803 cells assessed as accumulation of cells at G2/M phase at 0.2 uM incubated for 24 hrs by propidium iodide staining based flow cytometry analysis; type: functional
MGC-803 [6] = test: Induction of apoptosis in human MGC-803 cells assessed as early apoptotic cells at 0.2 uM incubated for 24 hrs by propidium iodide and Annexin V/FITC staining based flow cytometry assay (reference value: 1.85%); type: functional
RKO [7] = test: Induction of apoptosis in human RKO cells assessed as late apoptotic cells at 0.2 uM incubated for 24 hrs by propidium iodide and Annexin V/FITC staining based flow cytometry assay (reference value: 0.50%); type: functional
RKO [8] = test: Induction of cell cycle arrest in human RKO cells assessed as accumulation of cells at S phase at 0.2 uM incubated for 24 hrs by propidium iodide staining based flow cytometry analysis; type: functional
RKO [9] = test: Induction of apoptosis in human RKO cells assessed as early apoptotic cells at 0.2 uM incubated for 24 hrs by propidium iodide and Annexin V/FITC staining based flow cytometry assay (reference value: 0.16%); type: functional
MGC-803 [10] = test: Induction of morphological changes in human MGC-803 cells at 0.2 uM incubated for 24 hrs by Giemsa staining based micrscopic analysis; type: functional, cell-based
RKO [11] = test: Induction of morphological changes in human RKO cells at 0.2 uM incubated for 24 hrs by Giemsa staining based micrscopic analysis; type: functional, cell-based
RKO [12] = test: Induction of cell cycle arrest in human RKO cells assessed as accumulation of cells at G2/M phase at 0.2 uM incubated for 24 hrs by propidium iodide staining based flow cytometry analysis; type: functional
MGC-803 [13] = test: Induction of apoptosis in human MGC-803 cells assessed as late apoptotic cells at 0.2 uM incubated for 24 hrs by propidium iodide and Annexin V/FITC staining based flow cytometry assay (reference value: 4.10%); type: functional
RKO [14] = test: Inhibition of cell migration in human RKO cells assessed as reduction in tumor wound healing incubated for 24 hrs by microscopic analysis; type: functional, cell-based; details: dose 10-90 nM
MGC-803 [15] = test: Antiproliferative activity against human MGC-803 cells assessed as reduction in cell viability at 90 nM incubated for 24 hrs by BrdU staining based fluorescence microscopic analysis; type: functional
RKO [16] = test: Antiproliferative activity against human RKO cells assessed as reduction in cell viability at 90 nM incubated for 24 hrs by BrdU staining based fluorescence microscopic analysis; type: functional
MGC-803 [17] = test: Induction of cell cycle arrest in human MGC-803 cells at 0.2 uM incubated for 24 hrs by propidium iodide staining based flow cytometry analysis; type: functional
RKO [18] = test: Induction of cell cycle arrest in human RKO cells at 0.2 uM incubated for 24 hrs by propidium iodide staining based flow cytometry analysis; type: functional

Structure (SMILES)	IC50 (LoVo) [µM]	IC50 (RKO [1]) [µM]	IC50 (SGC-7901) [µM]	IC50 (GES1) [µM]	IC50 (SW480) [µM]	IC50 (MGC-803 [2]) [µM]	IC50 (HGC-27) [µM]	other results
C#CCN1c2ccccc2C(=O)N2CCc3c([nH]c4ccccc34)C21 (stereo not given)	1.5	0.85	0.64	1.2	1.22	0.21	1.52	–
CC(C)N1c2ccccc2C(=O)N2CCc3c([nH]c4ccccc34)C21 (stereo not given)	0.54	0.49	0.38	0.9	1.17	0.13	2.27	–
Cc1ccc(CN2c3ccccc3C(=O)N3CCc4c([nH]c5ccccc45)C32)cc1 (stereo not given)	> 30	12.5	6.11	9.74	> 30	7.06	> 30	–
C=CCN1c2ccccc2C(=O)N2CCc3c([nH]c4ccccc34)C21 (stereo not given)	1	0.38	0.27	–	0.38	0.06	1.05	inhibition [3]: Active
CCCCCN1c2ccccc2C(=O)N2CCc3c([nH]c4ccccc34)C21 (stereo not given)	> 30	1.87	1.22	2.82	4.41	0.75	7.74	–
C=C(CN1c2ccccc2C(=O)N2CCc3c([nH]c4ccccc34)C21)C(=O)OC (stereo not given)	> 30	> 30	> 30	> 30	> 30	19.7	> 30	–
C[Si](C)(C)CN1c2ccccc2C(=O)N2CCc3c([nH]c4ccccc34)C21 (stereo not given)	7.06	2.21	2.47	4.24	3.28	1.78	> 3	–
CC[C@@]1(O)C(=O)OCc2c1cc1n(c2=O)Cc2cc3c(CN(C)C)c(O)ccc3nc2-1 [TOPOTECAN]	0.12	0.42	0.69	1.06	0.09	0.42	0.49	inhibition (MGC-803 [4]): inactive; inhibition [3]: Active; Activity (MGC-803 [5]): 82.29%; Activity (MGC-803 [6]): 5.11%; Activity (RKO [7]): 19.28%; Activity (RKO [8]): 67.69%; Activity (RKO [9]): 14.2%; Activity (MGC-803 [10]): inactive; Activity (RKO [11]): inactive; Activity (RKO [12]): 31.92%; Activity (MGC-803 [13]): 3.67%; inhibition (RKO [14]): inactive
O=C1c2ccccc2N(CC2CC2)C2c3[nH]c4ccccc4c3CCN12 (stereo not given)	0.44	0.42	0.22	0.21	1.84	0.1	1.85	inhibition [3]: Active
CCN1c2ccccc2C(=O)N2CCc3c([nH]c4ccccc34)C21 (stereo not given)	1.2	0.41	0.43	0.3	0.98	0.17	2.15	inhibition [3]: Active
COc1ccc(CCN2c3ccccc3C(=O)N3CCc4c([nH]c5ccccc45)C32)cc1OC (stereo not given)	> 30	> 30	> 30	> 30	> 30	> 30	> 30	–
COc1ccc(CN2c3ccccc3C(=O)N3CCc4c([nH]c5ccccc45)C32)cc1 (stereo not given)	19.7	5.51	5.96	8.53	> 30	4.49	17.8	–
COc1cc2c(c(OC)c1OC)-c1ccc(OC)c(=O)cc1[C@@H](NC(C)=O)CC2 [COLCHICINE]	0.23	–	17.3	–	–	7.99	–	Activity (MGC-803 [6]): 6.95%; Activity (RKO [7]): 5.1%; Activity (MGC-803 [15]): Active; Activity (RKO [9]): 5.3%; Activity (MGC-803 [10]): Active; Activity (RKO [16]): Active; Activity (RKO [11]): Active; Activity (RKO [12]): 82.29%; Activity (MGC-803 [13]): 7.63%
CC(C)CN1c2ccccc2C(=O)N2CCc3c([nH]c4ccccc34)C21 (stereo not given)	0.5	0.88	0.35	1.08	2.2	0.16	1.95	inhibition [3]: Active
CCCCN1c2ccccc2C(=O)N2CCc3c([nH]c4ccccc34)C21 (stereo not given)	1.99	0.45	0.46	0.5	1.03	0.16	1.7	–
C/C=C/C(=O)N1c2ccccc2C(=O)N2CCc3c([nH]c4ccccc34)C21 (stereo not given)	> 30	10.2	9.59	13.6	6.99	10.3	4.37	–
CN1c2ccccc2C(=O)N2CCc3c([nH]c4ccccc34)C21 (racemic)	24.2	29.7	17.7	> 30	> 30	8.52	> 30	inhibition (MGC-803 [4]): inactive; inhibition [3]: Active; Activity (MGC-803 [6]): 3.15%; Activity (RKO [7]): 7.71%; Activity (RKO [9]): 4.63%; Activity (MGC-803 [10]): inactive; Activity (MGC-803 [17]): inactive; Activity (RKO [11]): inactive; Activity (MGC-803 [13]): 5.24%; Activity (RKO [18]): inactive; inhibition (RKO [14]): inactive
CC(C)(C)CN1c2ccccc2C(=O)N2CCc3c([nH]c4ccccc34)C21 (stereo not given)	1.95	1.31	1.21	1.68	1.84	0.91	> 3	–
COC(=O)CN1c2ccccc2C(=O)N2CCc3c([nH]c4ccccc34)C21 (stereo not given)	> 30	23.4	6.66	> 30	> 30	> 30	> 30	–
O=C1c2ccccc2N(CCC2OCCO2)C2c3[nH]c4ccccc4c3CCN12 (stereo not given)	> 30	> 30	5.63	> 30	> 30	15.7	> 30	–
O=C1c2ccccc2N(Cc2ccccc2)C2c3[nH]c4ccccc4c3CCN12 (stereo not given)	> 30	5.96	11.6	15.9	13.3	9.34	10.7	–
O=C1c2ccccc2N(CCBr)C2c3[nH]c4ccccc4c3CCN12 (stereo not given)	1.34	0.98	1.06	1.34	0.97	0.55	2.05	–
